Key:
Assay type in all cases: cell-based
[1] = biological target: Transient receptor potential cation channel subfamily V member 1 (Homo sapiens, UniProt Q8NER1); experiment: (§1) Radiometric Calcium Assay: The inhibition of TRPA1 receptor activation was measured as inhibition of allylisothiocyanate (AITC) induced cellular uptake of radioactive calcium. Test compounds were dissolved in DMSO to prepare 10 mM stock solution and then diluted using plain medium with 0.1% BSA and 1.8 mM CaCl2 to get desired concentration. Final concentration of DMSO in the reaction was 0.5% (v/v). Human TRPA1 expressing CHO cells were grown in F-12 DMEM medium with 10% FBS, 1% penicillin-streptomycin solution, and 400 ug/ml of G-418. Cells were seeded 24 h prior to the assay in 96 well plates so as to get 50,000 cells per well on the day of experiment. Cells were treated with test compounds for 10 min followed by addition of AITC at a final concentration of 30 micromolar and 5 uCi/ml 45Ca+2 for 3 min at 25° C. Cells were washed and lysed using buffer containing 1% Triton X-100, 0.1% deoxycholate and 0.1% SDS. Radioactivity in the lysate was measured in Packard Top count.
Transient receptor potential cation channel subfamily V member 1, sequence (Q8NER1 whole entry): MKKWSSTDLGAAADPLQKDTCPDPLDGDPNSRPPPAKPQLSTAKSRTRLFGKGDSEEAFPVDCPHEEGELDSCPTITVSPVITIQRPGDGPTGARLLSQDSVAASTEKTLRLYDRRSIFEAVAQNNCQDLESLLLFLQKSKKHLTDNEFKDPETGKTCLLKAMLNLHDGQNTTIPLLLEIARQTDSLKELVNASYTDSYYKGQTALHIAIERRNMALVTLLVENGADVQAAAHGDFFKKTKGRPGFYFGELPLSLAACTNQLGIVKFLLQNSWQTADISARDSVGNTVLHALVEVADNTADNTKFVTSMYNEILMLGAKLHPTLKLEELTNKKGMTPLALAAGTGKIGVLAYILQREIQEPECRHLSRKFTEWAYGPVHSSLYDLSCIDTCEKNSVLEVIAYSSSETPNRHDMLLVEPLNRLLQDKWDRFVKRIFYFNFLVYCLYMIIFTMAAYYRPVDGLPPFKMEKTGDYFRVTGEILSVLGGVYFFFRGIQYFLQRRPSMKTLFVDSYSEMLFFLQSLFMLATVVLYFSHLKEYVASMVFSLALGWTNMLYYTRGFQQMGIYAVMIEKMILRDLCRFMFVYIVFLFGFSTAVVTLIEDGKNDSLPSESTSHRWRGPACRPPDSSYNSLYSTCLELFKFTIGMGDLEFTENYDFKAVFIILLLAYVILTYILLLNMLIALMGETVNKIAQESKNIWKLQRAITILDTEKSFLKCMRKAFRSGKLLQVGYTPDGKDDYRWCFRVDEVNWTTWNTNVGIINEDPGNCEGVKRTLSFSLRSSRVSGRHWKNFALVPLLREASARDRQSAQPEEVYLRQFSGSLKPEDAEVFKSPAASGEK

[2] = biological target: Transient receptor potential cation channel subfamily M member 8 (Homo sapiens, UniProt Q7Z2W7); experiment: as §1
Transient receptor potential cation channel subfamily M member 8, sequence (Q7Z2W7 whole entry): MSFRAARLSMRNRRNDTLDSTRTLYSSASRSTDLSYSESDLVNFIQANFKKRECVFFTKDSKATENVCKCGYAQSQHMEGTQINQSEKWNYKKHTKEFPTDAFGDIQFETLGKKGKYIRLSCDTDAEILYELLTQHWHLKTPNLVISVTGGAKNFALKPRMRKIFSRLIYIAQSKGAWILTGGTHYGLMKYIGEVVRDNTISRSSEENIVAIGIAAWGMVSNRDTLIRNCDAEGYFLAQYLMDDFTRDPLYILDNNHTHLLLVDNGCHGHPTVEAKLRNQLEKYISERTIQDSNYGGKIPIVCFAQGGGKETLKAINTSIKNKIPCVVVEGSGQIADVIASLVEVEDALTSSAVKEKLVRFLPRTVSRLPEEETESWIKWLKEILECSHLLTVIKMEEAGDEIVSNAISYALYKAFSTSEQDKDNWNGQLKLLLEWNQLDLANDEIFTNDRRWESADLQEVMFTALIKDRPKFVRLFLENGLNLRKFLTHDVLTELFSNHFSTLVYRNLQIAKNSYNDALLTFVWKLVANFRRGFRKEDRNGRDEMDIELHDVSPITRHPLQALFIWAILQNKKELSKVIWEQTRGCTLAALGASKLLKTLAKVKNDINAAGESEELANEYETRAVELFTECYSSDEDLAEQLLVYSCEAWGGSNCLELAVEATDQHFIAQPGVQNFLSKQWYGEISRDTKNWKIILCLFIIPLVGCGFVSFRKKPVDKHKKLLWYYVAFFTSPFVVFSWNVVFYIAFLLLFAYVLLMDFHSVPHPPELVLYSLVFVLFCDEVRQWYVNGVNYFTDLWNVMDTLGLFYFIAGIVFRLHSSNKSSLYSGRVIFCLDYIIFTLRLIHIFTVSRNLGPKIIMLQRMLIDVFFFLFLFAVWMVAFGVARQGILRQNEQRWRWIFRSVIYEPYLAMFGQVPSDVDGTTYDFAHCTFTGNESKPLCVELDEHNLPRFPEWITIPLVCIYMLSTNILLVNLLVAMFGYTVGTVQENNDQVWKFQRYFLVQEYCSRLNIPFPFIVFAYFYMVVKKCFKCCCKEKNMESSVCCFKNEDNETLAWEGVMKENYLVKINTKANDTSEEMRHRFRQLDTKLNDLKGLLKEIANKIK

[3] = biological target: T1, Transient receptor potential cation channel subfamily V member 3 (Homo sapiens, UniProt Q8NET8); experiment: as §1
T1 sequence (Q8NET8 whole entry): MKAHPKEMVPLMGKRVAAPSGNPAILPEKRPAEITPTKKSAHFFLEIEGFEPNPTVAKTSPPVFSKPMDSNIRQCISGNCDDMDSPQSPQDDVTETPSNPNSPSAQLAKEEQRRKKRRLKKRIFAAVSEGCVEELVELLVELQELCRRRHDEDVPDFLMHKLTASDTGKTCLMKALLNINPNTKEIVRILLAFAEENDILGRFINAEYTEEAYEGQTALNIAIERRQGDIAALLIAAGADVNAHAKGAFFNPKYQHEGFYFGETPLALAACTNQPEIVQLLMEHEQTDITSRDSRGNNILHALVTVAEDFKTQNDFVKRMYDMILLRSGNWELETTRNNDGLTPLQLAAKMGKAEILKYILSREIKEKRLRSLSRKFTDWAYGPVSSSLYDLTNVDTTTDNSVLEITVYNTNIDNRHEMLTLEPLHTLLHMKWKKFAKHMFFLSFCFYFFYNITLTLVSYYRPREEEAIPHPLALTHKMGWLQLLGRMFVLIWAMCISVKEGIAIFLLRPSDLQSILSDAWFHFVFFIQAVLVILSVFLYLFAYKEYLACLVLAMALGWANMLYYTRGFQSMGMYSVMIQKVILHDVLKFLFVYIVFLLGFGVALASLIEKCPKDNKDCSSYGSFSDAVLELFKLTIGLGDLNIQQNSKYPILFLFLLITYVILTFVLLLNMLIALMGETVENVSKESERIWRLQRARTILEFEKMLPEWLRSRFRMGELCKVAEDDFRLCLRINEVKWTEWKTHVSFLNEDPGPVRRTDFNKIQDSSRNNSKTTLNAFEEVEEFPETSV

[4] = biological target: Transient receptor potential cation channel subfamily V member 4 (Homo sapiens, UniProt Q9HBA0); experiment: as §1
Transient receptor potential cation channel subfamily V member 4, sequence (Q9HBA0 whole entry): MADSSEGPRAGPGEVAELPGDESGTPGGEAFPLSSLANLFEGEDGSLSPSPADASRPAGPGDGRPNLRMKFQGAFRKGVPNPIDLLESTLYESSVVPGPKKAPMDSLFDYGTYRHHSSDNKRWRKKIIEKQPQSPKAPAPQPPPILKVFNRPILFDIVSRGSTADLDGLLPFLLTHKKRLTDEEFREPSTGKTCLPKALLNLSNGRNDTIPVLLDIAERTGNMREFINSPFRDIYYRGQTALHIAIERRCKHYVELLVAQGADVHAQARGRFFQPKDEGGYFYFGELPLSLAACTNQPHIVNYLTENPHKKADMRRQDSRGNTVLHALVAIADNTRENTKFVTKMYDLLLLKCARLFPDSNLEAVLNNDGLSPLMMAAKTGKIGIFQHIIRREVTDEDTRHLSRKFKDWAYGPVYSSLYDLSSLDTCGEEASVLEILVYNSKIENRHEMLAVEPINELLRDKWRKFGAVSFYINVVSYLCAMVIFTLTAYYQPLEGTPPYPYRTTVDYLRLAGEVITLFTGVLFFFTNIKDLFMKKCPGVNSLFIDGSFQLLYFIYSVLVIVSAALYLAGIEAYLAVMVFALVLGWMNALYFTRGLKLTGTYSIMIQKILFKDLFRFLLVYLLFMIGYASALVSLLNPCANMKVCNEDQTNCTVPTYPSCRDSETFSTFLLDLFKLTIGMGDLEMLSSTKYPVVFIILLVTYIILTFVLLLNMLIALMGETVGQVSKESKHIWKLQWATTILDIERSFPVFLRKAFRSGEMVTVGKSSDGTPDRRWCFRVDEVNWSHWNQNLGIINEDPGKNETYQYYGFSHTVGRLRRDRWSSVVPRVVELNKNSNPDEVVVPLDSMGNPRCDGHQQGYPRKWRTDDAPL

[5] = biological target: Transient receptor potential cation channel subfamily A member 1 (Homo sapiens, UniProt O75762); experiment: as §1
Transient receptor potential cation channel subfamily A member 1, sequence (O75762 whole entry): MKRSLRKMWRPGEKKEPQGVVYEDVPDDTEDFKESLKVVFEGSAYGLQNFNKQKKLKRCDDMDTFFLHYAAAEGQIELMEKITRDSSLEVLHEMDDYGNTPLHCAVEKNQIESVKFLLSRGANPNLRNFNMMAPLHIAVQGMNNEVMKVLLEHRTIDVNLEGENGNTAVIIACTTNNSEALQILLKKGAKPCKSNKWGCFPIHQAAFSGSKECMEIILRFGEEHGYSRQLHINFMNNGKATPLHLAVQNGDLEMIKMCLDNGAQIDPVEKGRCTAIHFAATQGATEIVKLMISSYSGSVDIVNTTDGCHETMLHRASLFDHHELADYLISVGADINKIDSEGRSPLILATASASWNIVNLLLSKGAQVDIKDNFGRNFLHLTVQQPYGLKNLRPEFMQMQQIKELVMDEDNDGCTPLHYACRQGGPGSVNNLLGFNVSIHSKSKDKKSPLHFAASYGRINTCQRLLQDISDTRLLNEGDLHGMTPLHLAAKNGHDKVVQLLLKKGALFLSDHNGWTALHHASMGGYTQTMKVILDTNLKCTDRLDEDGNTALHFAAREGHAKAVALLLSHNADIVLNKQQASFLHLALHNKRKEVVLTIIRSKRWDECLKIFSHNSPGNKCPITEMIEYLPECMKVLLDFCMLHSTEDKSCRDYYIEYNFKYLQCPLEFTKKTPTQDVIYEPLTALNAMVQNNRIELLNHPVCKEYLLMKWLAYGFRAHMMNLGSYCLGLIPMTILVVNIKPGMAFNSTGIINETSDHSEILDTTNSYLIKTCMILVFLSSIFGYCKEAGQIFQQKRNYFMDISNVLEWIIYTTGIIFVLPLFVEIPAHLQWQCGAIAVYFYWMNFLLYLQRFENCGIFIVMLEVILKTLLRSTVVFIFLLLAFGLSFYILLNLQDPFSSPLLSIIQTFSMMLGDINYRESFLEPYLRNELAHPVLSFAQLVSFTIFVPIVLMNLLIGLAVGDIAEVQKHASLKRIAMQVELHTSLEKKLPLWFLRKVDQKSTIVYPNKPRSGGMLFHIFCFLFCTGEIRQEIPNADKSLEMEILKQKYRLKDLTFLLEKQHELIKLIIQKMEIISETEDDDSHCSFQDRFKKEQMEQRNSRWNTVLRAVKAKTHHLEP

Structure (SMILES) | IC50 [1] [µM] | IC50 [2] [µM] | IC50 [3] [µM] | IC50 [4] [µM] | IC50 [5] [µM]
Cc1oc2c(c1CC(=O)/N=c1\scc(-c3ccc(OC(F)(F)F)c(Cl)c3)n1COC(=O)[C@@H](N)C(C)C)c(=O)n(C)c(=O)n2C | > 10 | > 10 | 2.81 | 2.35 | 
Cc1oc2c(c1CC(=O)Nc1nc(-c3ccc(OC(F)(F)F)c(Cl)c3)cs1)c(=O)n(C)c(=O)n2C | > 10 | > 10 | 4.45 | 5.74 | 
Cn1c(=O)c2c(CC(=O)Nc3nc(-c4ccc(C(F)(F)F)c(F)c4F)cs3)nsc2n(C)c1=O | 17.7 | > 10 | 2.83 | 0.132 | 
Cc1oc2c(c1CC(=O)/N=c1\scc(-c3ccc(OC(F)(F)F)c(Cl)c3)n1COP(=O)(O)O)c(=O)n(C)c(=O)n2C | > 10 | > 10 | > 10 | > 10 | 1.18
Cn1c(=O)c2c(CC(=O)Nc3nc(-c4ccc(F)c(C(F)(F)F)c4F)cs3)csc2n(C)c1=O |  |  | 2.52 | 3.04 | 
Cn1nc2c(c1CC(=O)/N=c1\scc(-c3ccc(F)c(C(F)(F)F)c3F)n1COP(=O)(O)O)c(=O)n(C)c(=O)n2C | > 10 | > 10 | > 10 | > 10 | 1.58
